Publication PMC6950969 (Saudi Pharmaceutical Journal : SPJ, 2019)
In brackets after ≈: the same amount, converted by molar mass. Where a name gives a salt, the structure may show the parent alone.

Tests used:
[1] = tested on: Acetylcholinesterase (AChE); experiment: AChE inhibition, Ellman's method; assay type: biochemical; conditions: 20 µg/mL
[2] = tested on: butyrylcholinesterase (BChE); conditions: coumarins from Angelica officinalis L. fruits; ref Ferreira et al., 2006; cited from earlier work
[3] = Anti-lipid peroxidation activity
[4] = biological target: hCA II (Homo sapiens, UniProt P00918); experiment: hCA II inhibition, esterase activity; assay type: biochemical
[5] = tested on: butyrylcholinesterase (BChE); experiment: BChE inhibition, Ellman's method; assay type: biochemical; conditions: for Percentile of inhibition ± S.E.M against BChE: 20 µg/mL
[6] = biological target: hCA I (Homo sapiens, UniProt P00915); experiment: hCA I inhibition, esterase activity; assay type: biochemical
hCA I, sequence (P00915 whole entry): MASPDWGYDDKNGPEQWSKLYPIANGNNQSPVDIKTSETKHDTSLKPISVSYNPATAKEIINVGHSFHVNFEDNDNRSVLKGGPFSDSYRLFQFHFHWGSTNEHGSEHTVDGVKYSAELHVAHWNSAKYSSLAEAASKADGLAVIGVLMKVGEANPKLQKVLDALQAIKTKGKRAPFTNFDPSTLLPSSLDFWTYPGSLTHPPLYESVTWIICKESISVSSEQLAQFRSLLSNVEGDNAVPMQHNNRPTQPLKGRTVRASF

[7] = tested on: Caco-2 cells; conditions: purified from A. dahurica; ref Liu et al., 2016; cited from earlier work
[8] = tested on: pPI3K and pAkt; conditions: cells Caco-2; ref Liu et al., 2016; cited from earlier work

| Compound | inhibition towards butyrylcholinesterase (BChE) (in words) [2] | IC50 values ± SD, anti-lipid peroxidation (TBA test) [3] | Percentile of inhibition ± S.E.M against BChE [5] | further results |
| --- | --- | --- | --- | --- |
| COc1c2ccoc2cc2oc(=O)ccc12 [Bergapten] | strong inhibition | 56.99 ± 3.87 µg/mL (≈ 264 µM) | 31.00 ± 3.02% | Percentile of inhibition ± S.E.M against AChE [1]: 18.98 ± 2.98%; IC50 [4]: 8.25 µM; Ki [4]: 12.8 ± 1.92 µM; IC50 [6]: 7.29 µM; Ki [6]: 4.79 ± 0.57 µM |
| CC1(C)O[C@H]1COc1c2ccoc2cc2oc(=O)ccc12 [Oxypeucedanin] | – | 91.27 ± 2.76 µg/mL (≈ 319 µM) | 36.89 ± 1.23% | Percentile of inhibition ± S.E.M against AChE [1]: 19.36 ± 1.87%; IC50 [4]: 5.29 µM; Ki [4]: 8.85 ± 1.05 µM; IC50 [6]: 6.73 µM; Ki [6]: 5.33 ± 1.08 µM |
| CCCOC(=O)c1cc(O)c(O)c(O)c1 [Propyl gallate, reference compound] | – | 3.44 ± 2.05 µg/mL (≈ 16.2 µM) | – | – |
| CC[C@H](CC[C@@H](C)[C@H]1CC[C@H]2[C@@H]3CC=C4C[C@@H](O)CC[C@]4(C)[C@H]3CC[C@]12C)C(C)C [β-Sitosterol] | – | 492.30 ± 2.03 µg/mL (≈ 1190 µM) | 9.93 ± 1.78% | BChE inhibition activity (in words) [5]: did not show considerable inhibition towards BChE |
| O=C(/C=C/c1ccc(O)c(O)c1)O[C@@H]1C[C@](O)(C(=O)O)C[C@@H](O)[C@H]1O [Chlorogenic acid, reference compound] | – | 12.98 ± 4.89 µg/mL (≈ 36.6 µM) | – | – |
| CC(C)=CCOc1c2occc2cc2ccc(=O)oc12 [imperatorin] | strong inhibition | – | – | – |
| Oxypeucedanin hydrate monoacetate | – | – | – | cancer cell migration (in words) [7]: inhibition of cancer cell migration; expression of pPI3K and pAkt (in words) [8]: significant down-regulation |
| CC[C@H](/C=C/[C@@H](C)[C@H]1CC[C@H]2[C@@H]3CC=C4C[C@@H](O)CC[C@]4(C)[C@H]3CC[C@]12C)C(C)C [Stigmasterol] | – | – | 13.34 ± 2.99% | BChE inhibition activity (in words) [5]: did not show considerable inhibition towards BChE |
| CC(C)=CCOc1c2ccoc2cc2oc(=O)ccc12 [isoimperatorin] | strong inhibition | – | – | – |
| COc1cc2c(cc1OC)C(=O)C(CC1CCN(Cc3ccccc3)CC1)C2 (centres unmarked) [Donepezil, donepezil hydrochloride, reference compound] | – | – | 90.33 ± 4.16% | – |
| C[C@@H]1O[C@@H](OC[C@H]2O[C@@H](Oc3c(-c4ccc(O)c(O)c4)oc4cc(O)cc(O)c4c3=O)[C@H](O)[C@@H](O)[C@@H]2O)[C@H](O)[C@H](O)[C@H]1O [Rutin, reference compound] | – | 9.65 ± 3.09 µg/mL (≈ 15.8 µM) | – | – |
| COc1c2occc2cc2ccc(=O)oc12 [xanthotoxin] | strong inhibition | – | – | – |
